ChEMBL document CHEMBL3886531, “Dihydropyrrolopyrimidine derivatives” (2016)

Target: PI3-kinase p110-alpha/p85-alpha (Homo sapiens, UniProt P42336)
Test: Biochemical Assay: PI3KA_FL: Genes encoding for full length p110alpha and p85alpha subunits of PI3Kalpha complex were subcloned from existing constructs into pFASTBAC Dual vector (Life Technologies, Carlsbad, Calif.) using standard cloning procedures. Gene encoding p110alpha subunit was subcloned into polyhedrine promoter while gene encoding p85alpha subunit was subcloned into p10 promoter. Additionally, sequence encoding for histidine tag and Tobacco Etch Virus ("TEV") cleavage site preceded p110alpha ORF (Open Reading Frame). The biochemical assays of kinase activity of full-length PI3Kalpha (full-length p110alpha/p85a) or truncated PI3Kalpha (p110alpha/iSH2 p85a) were conducted using a fluorescence polarization format similar to the procedure of Yuan J., et al., (2011) PF-04691502, a Potent and Selective Oral Inhibitor of PI3K and mTOR Kinases with Antitumor Activity, Mol Cancer Ther. 10, 2189-2199. The enzymatic reactions were conducted in 50 uL volumes in 96-well plates.
Assay type: protein-complex assay

PI3-kinase p110-alpha/p85-alpha, sequence (P27986 whole entry, the tested form may be a part): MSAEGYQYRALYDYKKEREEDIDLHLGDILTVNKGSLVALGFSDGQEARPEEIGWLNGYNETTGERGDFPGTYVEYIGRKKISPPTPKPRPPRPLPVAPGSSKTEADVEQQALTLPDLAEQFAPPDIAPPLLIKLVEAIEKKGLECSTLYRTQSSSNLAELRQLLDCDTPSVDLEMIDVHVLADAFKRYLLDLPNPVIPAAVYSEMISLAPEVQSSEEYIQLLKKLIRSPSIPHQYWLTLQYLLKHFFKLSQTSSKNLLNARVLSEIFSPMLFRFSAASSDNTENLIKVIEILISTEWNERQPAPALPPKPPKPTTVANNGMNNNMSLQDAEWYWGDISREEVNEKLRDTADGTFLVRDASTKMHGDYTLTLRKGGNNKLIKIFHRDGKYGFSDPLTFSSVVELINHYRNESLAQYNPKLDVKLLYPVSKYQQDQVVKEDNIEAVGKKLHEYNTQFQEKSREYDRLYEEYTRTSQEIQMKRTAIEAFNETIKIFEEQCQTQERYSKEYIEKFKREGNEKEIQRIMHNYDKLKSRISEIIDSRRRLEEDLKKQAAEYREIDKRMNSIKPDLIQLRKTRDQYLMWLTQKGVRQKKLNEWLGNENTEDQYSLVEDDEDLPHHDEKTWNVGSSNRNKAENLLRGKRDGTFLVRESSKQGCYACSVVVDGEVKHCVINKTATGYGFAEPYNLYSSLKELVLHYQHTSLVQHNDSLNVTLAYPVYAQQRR
PI3-kinase p110-alpha/p85-alpha, sequence (P42336 whole entry, the tested form may be a part): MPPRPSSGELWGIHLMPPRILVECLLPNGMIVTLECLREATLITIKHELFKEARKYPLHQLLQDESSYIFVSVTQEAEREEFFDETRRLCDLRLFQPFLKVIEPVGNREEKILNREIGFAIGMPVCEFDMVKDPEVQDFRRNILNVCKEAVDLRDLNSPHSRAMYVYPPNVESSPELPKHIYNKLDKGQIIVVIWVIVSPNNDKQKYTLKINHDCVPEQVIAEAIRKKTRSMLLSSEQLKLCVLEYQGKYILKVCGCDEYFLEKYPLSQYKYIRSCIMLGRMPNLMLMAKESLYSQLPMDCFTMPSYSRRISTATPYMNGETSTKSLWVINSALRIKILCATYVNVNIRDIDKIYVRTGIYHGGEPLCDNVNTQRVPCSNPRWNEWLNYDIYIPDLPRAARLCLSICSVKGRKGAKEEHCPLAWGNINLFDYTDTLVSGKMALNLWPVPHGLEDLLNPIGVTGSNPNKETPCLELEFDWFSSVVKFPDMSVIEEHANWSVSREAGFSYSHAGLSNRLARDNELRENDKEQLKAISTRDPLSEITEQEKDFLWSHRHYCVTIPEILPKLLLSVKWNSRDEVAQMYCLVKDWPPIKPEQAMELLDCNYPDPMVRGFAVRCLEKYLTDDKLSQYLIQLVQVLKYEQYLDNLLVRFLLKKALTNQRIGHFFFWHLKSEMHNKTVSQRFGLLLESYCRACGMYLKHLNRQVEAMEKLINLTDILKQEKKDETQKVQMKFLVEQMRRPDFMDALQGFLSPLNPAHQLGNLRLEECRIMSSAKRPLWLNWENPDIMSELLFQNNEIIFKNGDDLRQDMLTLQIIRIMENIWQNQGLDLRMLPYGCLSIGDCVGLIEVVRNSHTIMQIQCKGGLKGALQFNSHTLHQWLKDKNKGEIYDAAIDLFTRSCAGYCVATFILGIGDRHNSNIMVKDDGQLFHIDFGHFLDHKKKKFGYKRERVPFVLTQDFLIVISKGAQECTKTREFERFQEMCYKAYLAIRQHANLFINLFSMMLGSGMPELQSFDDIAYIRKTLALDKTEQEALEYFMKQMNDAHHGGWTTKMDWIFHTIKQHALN

For CC(=O)N[C@H]1C(C)(C)[C@H](N2CCc3c(-c4cnc(N)nc4)nc(N4CCOCC4)nc32)C1(C)C, which Ki is on record?
Its Ki is 1.14 nM.
